Measured values from PMC8284453 (Antimicrobial Agents and Chemotherapy, 2021).
In brackets after ≈: the same amount, converted by molar mass. Several values for one entry are separate records, joined by “and”; a condition that tells them apart may be missing. Identical values can stand only once. Like-named read-outs stand apart in the source and are kept apart here.

What was measured:
[1] = test system: Enterobacterales expressing class A carbapenemases (KPC); assay: organism not typed; assay type: cell-based, K. pneumoniae, E. coli, E. cloacae, Klebsiella oxytoca
[2] = test system: K. pneumoniae 752286 (OXA-48); assay: 24-h time-kill assay; assay type: cell-based; conditions: Klebsiella pneumoniae, 24 h
Procedure: (§1) In vitro antibacterial time-kill assay. […] Time-kill assays were performed in 14 ml glass tubes or deep-well storage plates with a bacterial inoculum in CAMHB of 5 × 10^5 CFU/ml. The tubes/plates were incubated at 37°C with shaking at 200 rpm, and aliquots were drawn at six time points (0, 2, 4, 6, 8, and 24 h) to conduct 0.5 log10 dilutions in CAMHB in 96-well plates that were incubated overnight at 37°C and used to ascertain viable bacterial counts. The lowest quantifiable amount by this method is 2 log10 CFU/ml.

E. coli ESBL4 (CTX-M-15) [3] = assay: 24-h time-kill assay; assay type: cell-based
Procedure: as §1

[4] = test system: E. cloacae ECL01 (TEM-72, ACT-1, P99AmpC); assay: 24-h time-kill assay; assay type: cell-based; conditions: Enterobacter cloacae; lowest concentration with ≥3-log10 CFU/ml reduction at 24 h; read-out: MBC
Procedure: as §1

[5] = test system: K. pneumoniae ATCC BAA-1705 (KPC-2); assay: 24-h time-kill assay; assay type: cell-based; conditions: Klebsiella pneumoniae, ATCCBAA1705; lowest concentration with ≥3-log10 CFU/ml reduction at 24 h; read-out: MBC
Procedure: as §1

[6] = test system: K. pneumoniae ATCC BAA-1705 (KPC-2); assay: Broth microdilution MIC; assay type: cell-based; conditions: Klebsiella pneumoniae, ATCCBAA1705
[7] = test system: isogenic strains of E. coli expressing Ambler class A, B, C, and D enzymes; assay: microbe, parasite or virus in culture; assay type: cell-based, Escherichia coli
[8] = test system: Enterobacterales expressing class C cephalosporinases; assay: organism not typed
[9] = test system: E. cloacae ECL01 (TEM-72, ACT-1, P99AmpC); assay: Broth microdilution MIC; assay type: cell-based; conditions: Enterobacter cloacae
E. coli ESBL4 (CTX-M-15) [10] = assay: Broth microdilution MIC; assay type: cell-based; conditions: Escherichia coli
[11] = test system: Enterobacterales expressing class A ESBLs; assay: organism not typed; assay type: cell-based, E. coli, K. pneumoniae

## Nc1nc(/C(=C/CC(=O)O)C(=O)N[C@@H]2C(=O)N3C(C(=O)O)=CCS[C@H]23)cs1 [CTB, ceftibuten]
[1]; 25 isolates, BLI fixed at 4 μg/ml, AMC 2:1
  MIC90: ≥ 64 µg/mL
[1]; E. cloacae 847426 (KPC)
  MIC: ≥ 64 µg/mL
[1]; E. cloacae 847429 (KPC)
  MIC: 16 µg/mL (≈ 39 µM)
[1]; E. cloacae OIMGH49 (p99 AmpC, ACT-2, KPC-2, TEM-1)
  MIC: ≥ 64 µg/mL
[1]; E. coli 786978 (KPC)
  MIC: 32 µg/mL (≈ 78 µM)
[1]; K. oxytoca 847537 (KPC)
  MIC: ≥ 64 µg/mL
[1]; K. oxytoca 847539 (KPC)
  MIC: 0.5 µg/mL (≈ 1.22 µM)
[1]; K. pneumoniae 155140 (AmpC, KPC-2, SHV-12, TEM-1)
  MIC: ≥ 64 µg/mL
[1]; K. pneumoniae 845661 (KPC)
  MIC: 32 µg/mL (≈ 78 µM)
[1]; K. pneumoniae 845662 (KPC)
  MIC: 16 µg/mL (≈ 39 µM)
[1]; K. pneumoniae 845665 (KPC)
  MIC: 32 µg/mL (≈ 78 µM)
[1]; K. pneumoniae 845667 (KPC)
  MIC: 16 µg/mL (≈ 39 µM)
[1]; K. pneumoniae 845670 (KPC)
  MIC: 0.5 µg/mL (≈ 1.22 µM)
[1]; K. pneumoniae 845904 (KPC)
  MIC: 1 µg/mL (≈ 2.44 µM)
[1]; K. pneumoniae 847204 (KPC)
  MIC: 16 µg/mL (≈ 39 µM)
[1]; K. pneumoniae 847375 (KPC)
  MIC: 8 µg/mL (≈ 19.5 µM)
[1]; K. pneumoniae 847378 (KPC)
  MIC: 8 µg/mL (≈ 19.5 µM)
[1]; K. pneumoniae 847379 (KPC)
  MIC: 8 µg/mL (≈ 19.5 µM)
[1]; K. pneumoniae 847383 (KPC)
  MIC: 8 µg/mL (≈ 19.5 µM)
[1]; K. pneumoniae 847384 (KPC)
  MIC: 8 µg/mL (≈ 19.5 µM)
[1]; K. pneumoniae 847387 (KPC)
  MIC: 16 µg/mL (≈ 39 µM)
[1]; K. pneumoniae 847747 (KPC)
  MIC: 4 µg/mL (≈ 9.75 µM)
[1]; K. pneumoniae 848832 (KPC)
  MIC: 16 µg/mL (≈ 39 µM)
[1]; K. pneumoniae 848844 (KPC)
  MIC: 16 µg/mL (≈ 39 µM)
[1]; K. pneumoniae 897067 (KPC)
  MIC: 2 µg/mL (≈ 4.87 µM)
[1]; K. pneumoniae UMM (KPC-2, SHV-5, TEM-1)
  MIC: 1 µg/mL (≈ 2.44 µM)
[2]
  MBC: ≥ 128 µg/mL
E. coli ESBL4 (CTX-M-15) [3]; Escherichia coli, lowest concentration with ≥3-log10 CFU/ml reduction at 24 h, read-out: MBC
  MBC: > 32 µg/mL
E. coli ESBL4 (CTX-M-15) [3]; Fig. 3a, CTB 2 μg/ml with BLI at 4 μg/ml, CTB alone 8 μg/ml, amoxicillin 8/clavulanic acid 4 μg/ml, penems 2 μg/ml
  outcome of 24-h time-kill assay: initial killing, but the strains grew to control levels by 24 h
[4]
  MBC: > 32 µg/mL
[5]
  MBC: 16 µg/mL (≈ 39 µM)
[6]
  MIC: 16 µg/mL (≈ 39 µM)
[7]
  Fold increase in MIC compared to vector control: 16 and 32
[7]; E. coli expressing ACT-17 (class C), inhibitor fixed at 4 μg/ml
  Fold increase in MIC compared to vector control: 1,024
[7]; E. coli expressing CMY-2 (class C), inhibitor fixed at 4 μg/ml
  Fold increase in MIC compared to vector control: 1,024
[7]; E. coli expressing CMY-42 (class C), inhibitor fixed at 4 μg/ml
  Fold increase in MIC compared to vector control: ≥1,024
[7]; E. coli expressing CTX-M-15 (class A), inhibitor fixed at 4 μg/ml
  Fold increase in MIC compared to vector control: 64
[7]; E. coli expressing GES-5 (class A), inhibitor fixed at 4 μg/ml
  Fold increase in MIC compared to vector control: 8
[7]; E. coli expressing NDM-1 (class B), inhibitor fixed at 4 μg/ml
  Fold increase in MIC compared to vector control: ≥1,024
[7]; E. coli expressing OXA-23 (class D), inhibitor fixed at 4 μg/ml
  Fold increase in MIC compared to vector control: 2
[7]; E. coli expressing OXA-48 (class D), inhibitor fixed at 4 μg/ml
  Fold increase in MIC compared to vector control: 4
[7]; E. coli expressing OXA-163 (class D), inhibitor fixed at 4 μg/ml
  Fold increase in MIC compared to vector control: 32
[7]; E. coli expressing OXA-181 (class D), inhibitor fixed at 4 μg/ml
  Fold increase in MIC compared to vector control: 2
[7]; E. coli expressing P99/AmpC (class C), inhibitor fixed at 4 μg/ml
  Fold increase in MIC compared to vector control: ≥1,024
[7]; E. coli expressing PER-1 (class A), inhibitor fixed at 4 μg/ml
  Fold increase in MIC compared to vector control: 1,024
[7]; E. coli expressing SHV-5 (class A), inhibitor fixed at 4 μg/ml
  Fold increase in MIC compared to vector control: 128
[7]; E. coli expressing SHV-12 (class A), inhibitor fixed at 4 μg/ml
  Fold increase in MIC compared to vector control: 256
[7]; E. coli expressing TEM-10 (class A), inhibitor fixed at 4 μg/ml, modal MIC, 4 replicates
  Fold increase in MIC compared to vector control: 4
[7]; E. coli expressing VEB-9 (class A), inhibitor fixed at 4 μg/ml
  Fold increase in MIC compared to vector control: ≥1,024
[7]; Escherichia coli, read-out: Vector control MIC
  MIC: 1 µg/mL (≈ 2.44 µM)
[8]
  MIC50: 16 µg/mL (≈ 39 µM)
  MIC90: ≥ 64 µg/mL
[9]
  MIC: 64 µg/mL (≈ 156 µM)
E. coli ESBL4 (CTX-M-15) [10]
  MIC: 32 µg/mL (≈ 78 µM)
[11]
  MIC50: 8 µg/mL (≈ 19.5 µM)
  MIC90: ≥ 64 µg/mL
